# Results published in patent publication US11505521B2 (Biothea Pharma, Inc., priority 2018, dated 2022).
# Columns and labels:
# physchem = settings: water; for Solubility: 25±2° C.
# Method: The tests were conducted using Sartorius balances (Model SQP), a Thermo HPLC (UltiMate 3000 System, UV Wavelength: 205 nm), and Phenomenex Luna columns (5 μm C18 (2), 4.6×250 mm). The column temperature was 40° C. and the autosampler temperature was room temperature. The injection volume was 5 μL.
# (§1) Mobile Phase A was prepared by weighing 4.0 g tetramethylammonium bisulfate (MERYER, Batch No. 77957139) and 1.1 sodium 1-heptasulfonate (Admas-beta, Batch No. P1343755), and transferring the materials to a flask. 2 mL of 0.1 mol/L EDTA solution (Brand: Sinopharm Chemical Reagent Co., Ltd., Batch No. 20150410) was added to the flask and the volume was adjusted to 950 mL using water. The solution was mixed and adjusted to a pH of 3.5 with 0.1N sodium hydroxide solution (Brand: Enox, Batch No. 20161201). Mobile Phase B was prepared using ethanol. The isocratic elution was used in a proportion of A/B of 85/15. The run time was 8 minutes.
# A standard solution was used comprising 10 mg of the standard dissolved in 10 mL of water. The test solution solutions were prepared and water was added at 25±2° C. Every 5 minutes, the solution was sonicated for 30 seconds. The dissolution was observed within 30 minutes to make sure the solution was saturated. The solution was filtered through a 0.45 μm membrane and the solution was diluted to test.
# [1] = sublingual tablet of Example 3, 10 mg epinephrine base, receptor pH 7.4, 37° C.
# Method: The in-vitro permeability of the pharmaceutical compositions of Example 3 were tested. The tests were conducted using drug transdermal diffusion test instruments (Brand Huanghai, Model No. RJY-6B), Sartorius balances (Model SQP), an INESA pH meter (Model PHS-3E), a Thermo HPLC (UltiMate 3000 System, UV Wavelength: 205 nm), and Phenomenex Luna columns (5 μm C18 (2), 4.6×250 mm). The column temperature was 40° C. and the autosampler temperature was room temperature. The injection volume was 5 μL.
# as §1, with “using methanol.” for “using ethanol.”, “was 10” for “was 8”
# The in vitro diffusion of epinephrine salts were evaluated using Franz cells with an OD of 20 mm and reservoir volume of 7 mL. Dialysis membranes (Spectra/Por® dialysis membranes with 1,000 Da MWCO) were used to simulate sublingual mucous membrane in the vitro permeability tests. The assay content of the active components was detected in receiving pools. A receptor chamber with a magnetic stirrer was filled with phosphate buffer solution (pH 7.4) as the diffusion medium. The water bath was set at 37° C., and water was circulated in the Franz cells.
# Each tablet was placed at the center of the donor chamber on the membrane at T0, and 2 mL of the artificial saliva (Brand: Biomart, Brand No. GL0305) was added to facilitate tablet disintegration and dissolution. Aliquots of 1 mL were withdrawn from the receptor chamber at 10, 30, 60, 90, and 120 min. The volumes withdrawn were replenished with fresh medium. Samples were transferred to HPLC vials for HPLC analysis.
Compound,"solubility at 30 min (physchem; 25 °C, thermodynamic from solid) [mg/mL]",Diffusion content (%) 120 min [1] [%],Solubility (physchem) [mg/mL]
CNC[C@H](O)c1ccc(O)c(O)c1 [epinephrine bitartrate],827,67.8,–
CNC[C@H](O)c1ccc(O)c(O)c1 [epinephrine malonate],–,57.5,1142.7
epinephrine maleate,–,63.5,82.7
